Assays:
Details in all cases: 72 h
[1] = test system: myeloid leukemia patient primary cells Pat.12; assay: cell viability (% survival relative to DMSO control); higher = less cytotoxic
Summary of the method: (§1)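 Mononuclear cells from patients with AML or CML were thawed, purified on Ficoll and placed in RPMI 1640 with 10% FBS at 10,000 cells/well on 384-well plates. The plates came pre-printed with 70 compounds at five tenfold concentrations spanning 1–10,000 nM, in duplicate, and cells were exposed for 72 h. CellTiter-Glo gave viability, scaled between DMSO wells and wells with 10 μM proteasome inhibitor. Where reported, area under the curve was obtained from log-logistic fits with four parameters using the drc and PharmacoGx R packages.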

[2] = test system: myeloid leukemia patient primary cells Pat.6; assay: as above
Summary of the method: as §1

[3] = test system: myeloid leukemia patient primary cells Pat.4; assay: as above
Summary of the method: as §1

[4] = test system: myeloid leukemia patient primary cells Pat.3; assay: as above
Summary of the method: as §1

[5] = test system: myeloid leukemia patient primary cells Pat.1; assay: as above
Summary of the method: as §1

[6] = test system: myeloid leukemia patient primary cells Pat.5; assay: as above
Summary of the method: as §1

[7] = test system: myeloid leukemia patient primary cells Pat.15; assay: as above
Summary of the method: as §1

[8] = test system: myeloid leukemia patient primary cells Pat.13; assay: as above
Summary of the method: as §1

[9] = test system: myeloid leukemia patient primary cells Pat.11; assay: as above
Summary of the method: as §1

[10] = test system: myeloid leukemia patient primary cells Pat.9; assay: as above
Summary of the method: as §1

[11] = test system: myeloid leukemia patient primary cells Pat.2; assay: as above
Summary of the method: as §1

[12] = test system: myeloid leukemia patient primary cells Pat.10; assay: as above
Summary of the method: as §1

[13] = test system: myeloid leukemia patient primary cells Pat.8; assay: as above
Summary of the method: as §1

[14] = test system: myeloid leukemia patient primary cells Pat.7; assay: as above
Summary of the method: as §1

[15] = test system: myeloid leukemia patient primary cells Pat.14; assay: as above
Summary of the method: as §1

Mono-Mac-6 = assay: cell viability (% survival relative to DMSO control, bortezomib = 0%); higher = less cytotoxic
Summary of the method: (§2)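 In 384-well plates pre-printed with compounds at 1, 10, 100, 1000 or 10000 nM, duplicate wells received cells from 10 AML and 5 CML lines at densities within the linear growth range. The plates stayed at 37 °C with 5% CO2 for 72 h before CellTiter-Glo luminescence was recorded. Each entry is averaged percent survival. Scaling placed vehicle at 100% and a 10 µM positive control at 0%.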

NOMO-1 = assay: as above
Summary of the method: as §2

KU-812 = assay: as above
Summary of the method: as §2

THP-1 = assay: as above
Summary of the method: as §2

## c1ccc2c(c1)SCc1c-2[nH]c2ccccc12
[1]; 1 nM
  cell viability: 96.4%
[1]; 10 nM
  cell viability: 96.2%
[1]; 100 nM
  cell viability: 94.1%
[1]; 1000 nM
  cell viability: 81.1%
[1]; 10000 nM
  cell viability: 0.896%
[2]; 1 nM
  cell viability: 98.8%
[2]; 10 nM
  cell viability: 82.9%
[2]; 100 nM
  cell viability: 95%
[2]; 1000 nM
  cell viability: 88.3%
[2]; 10000 nM
  cell viability: 0.384%
[3]; 1 nM
  cell viability: 95.6%
[3]; 10 nM
  cell viability: 83.4%
[3]; 100 nM
  cell viability: 91%
[3]; 1000 nM
  cell viability: 67.8%
[3]; 10000 nM
  cell viability: < 0%
[4]; 1 nM
  cell viability: 96.1%
[4]; 10 nM
  cell viability: 76.1%
[4]; 100 nM
  cell viability: 89.8%
[4]; 1000 nM
  cell viability: 2.3%
[4]; 10000 nM
  cell viability: < 0%
[5]; 1 nM
  cell viability: 95.2%
[5]; 10 nM
  cell viability: 64.7%
[5]; 100 nM
  cell viability: 96.7%
[5]; 1000 nM
  cell viability: 85.8%
[5]; 10000 nM
  cell viability: 0.548%
[6]; 1 nM
  cell viability: 82.4%
[6]; 10 nM
  cell viability: 5.49%
[6]; 100 nM
  cell viability: 44.4%
[6]; 1000 nM
  cell viability: 7.88%
[6]; 10000 nM
  cell viability: 2.27%
[7]; 1 nM
  cell viability: 94.1%
[7]; 10 nM
  cell viability: 97.3%
[7]; 100 nM
  cell viability: 89.1%
[7]; 1000 nM
  cell viability: 59.8%
[7]; 10000 nM
  cell viability: 0.46%
[8]; 1 nM
  cell viability: 90.5%
[8]; 10 nM
  cell viability: 72.1%
[8]; 100 nM
  cell viability: 92.1%
[8]; 1000 nM
  cell viability: 61.1%
[8]; 10000 nM
  cell viability: 22.6%
[9]; 1 nM
  cell viability: > 100%
[9]; 10 nM
  cell viability: 94.7%
[9]; 100 nM
  cell viability: 99.1%
[9]; 1000 nM
  cell viability: 89.8%
[9]; 10000 nM
  cell viability: 0.682%
[10]; 1 nM
  cell viability: 91.9%
[10]; 10 nM
  cell viability: 34.7%
[10]; 100 nM
  cell viability: 71%
[10]; 1000 nM
  cell viability: 2.02%
[10]; 10000 nM
  cell viability: 5.35%
[11]; 1 nM
  cell viability: 96.8%
[11]; 10 nM
  cell viability: 89.3%
[11]; 100 nM
  cell viability: 97.2%
[11]; 1000 nM
  cell viability: 86.9%
[11]; 10000 nM
  cell viability: 3.43%
[12]; 1 nM
  cell viability: 73.8%
[12]; 10 nM
  cell viability: 59.9%
[12]; 100 nM
  cell viability: 41.9%
[12]; 1000 nM
  cell viability: 3.78%
[12]; 10000 nM
  cell viability: 42.4%
[13]; 1 nM
  cell viability: 92.5%
[13]; 10 nM
  cell viability: 67.3%
[13]; 100 nM
  cell viability: 69.9%
[13]; 1000 nM
  cell viability: 75.9%
[13]; 10000 nM
  cell viability: 0.503%
[14]; 1 nM
  cell viability: > 100%
[14]; 10 nM
  cell viability: 72.5%
[14]; 100 nM
  cell viability: > 100%
[14]; 1000 nM
  cell viability: 41.6%
[14]; 10000 nM
  cell viability: < 0%
[15]; 1 nM
  cell viability: 95.4%
[15]; 10 nM
  cell viability: 54.1%
[15]; 100 nM
  cell viability: 67.2%
[15]; 1000 nM
  cell viability: 4.19%
[15]; 10000 nM
  cell viability: 6.72%
Mono-Mac-6; 1 nM
  cell viability: 97.8%
Mono-Mac-6; 10 nM
  cell viability: 105%
Mono-Mac-6; 100 nM
  cell viability: 103%
Mono-Mac-6; 1000 nM
  cell viability: 95.3%
Mono-Mac-6; 10000 nM
  cell viability: -0.27%
NOMO-1; 1 nM
  cell viability: 97%
NOMO-1; 10 nM
  cell viability: 107%
NOMO-1; 100 nM
  cell viability: 108%
NOMO-1; 1000 nM
  cell viability: 98.2%
NOMO-1; 10000 nM
  cell viability: 0.816%
KU-812; 1 nM
  cell viability: 99.6%
KU-812; 10 nM
  cell viability: 110%
KU-812; 100 nM
  cell viability: 105%
KU-812; 1000 nM
  cell viability: 95.3%
KU-812; 10000 nM
  cell viability: 0.3%
THP-1; 1 nM
  cell viability: 105%
THP-1; 10 nM
  cell viability: 100%
THP-1; 100 nM
  cell viability: 106%
THP-1; 1000 nM
  cell viability: 93.4%
THP-1; 10000 nM
  cell viability: 33.6%

## OCC(CO)N[C@H]1C[C@](O)(CO)[C@@H](O)[C@H](O)[C@H]1O [Voglibose]
Mono-Mac-6; 1 nM
  cell viability: 102%
Mono-Mac-6; 10 nM
  cell viability: 96%
Mono-Mac-6; 100 nM
  cell viability: 109%
Mono-Mac-6; 1000 nM
  cell viability: 86.7%
Mono-Mac-6; 10000 nM
  cell viability: 91.8%
NOMO-1; 1 nM
  cell viability: 103%
NOMO-1; 10 nM
  cell viability: 103%
NOMO-1; 100 nM
  cell viability: 107%
NOMO-1; 1000 nM
  cell viability: 99.1%
NOMO-1; 10000 nM
  cell viability: 102%
KU-812; 1 nM
  cell viability: 97.5%
KU-812; 10 nM
  cell viability: 109%
KU-812; 100 nM
  cell viability: 106%
KU-812; 1000 nM
  cell viability: 88.5%
KU-812; 10000 nM
  cell viability: 91.3%
THP-1; 1 nM
  cell viability: 108%
THP-1; 10 nM
  cell viability: 96%
THP-1; 100 nM
  cell viability: 93%
THP-1; 1000 nM
  cell viability: 101%
THP-1; 10000 nM
  cell viability: 99.1%

Reference: the supplement of paper PMC8671470
